Data taken from US11111243B2, “Azaindole compounds as histone methyltransferase inhibitors” (GLOBAL BLOOD THERAPEUTICS, INC., priority 2017, dated 2021).
Structures can show the parent of a compound that is named as a salt.

What follows are molecules tested against T1, G9a (Homo sapiens, UniProt Q96KQ7) (assay: G9a AlphaLISA enzymatic activity assay). Conditions: 0.15 nM G9a, 10 uM S-adenosyl-methionine, 100 nM biotinylated histone 3 peptide (1-21), 1 h room temperature.
T1 sequence (Q96KQ7 1-1210): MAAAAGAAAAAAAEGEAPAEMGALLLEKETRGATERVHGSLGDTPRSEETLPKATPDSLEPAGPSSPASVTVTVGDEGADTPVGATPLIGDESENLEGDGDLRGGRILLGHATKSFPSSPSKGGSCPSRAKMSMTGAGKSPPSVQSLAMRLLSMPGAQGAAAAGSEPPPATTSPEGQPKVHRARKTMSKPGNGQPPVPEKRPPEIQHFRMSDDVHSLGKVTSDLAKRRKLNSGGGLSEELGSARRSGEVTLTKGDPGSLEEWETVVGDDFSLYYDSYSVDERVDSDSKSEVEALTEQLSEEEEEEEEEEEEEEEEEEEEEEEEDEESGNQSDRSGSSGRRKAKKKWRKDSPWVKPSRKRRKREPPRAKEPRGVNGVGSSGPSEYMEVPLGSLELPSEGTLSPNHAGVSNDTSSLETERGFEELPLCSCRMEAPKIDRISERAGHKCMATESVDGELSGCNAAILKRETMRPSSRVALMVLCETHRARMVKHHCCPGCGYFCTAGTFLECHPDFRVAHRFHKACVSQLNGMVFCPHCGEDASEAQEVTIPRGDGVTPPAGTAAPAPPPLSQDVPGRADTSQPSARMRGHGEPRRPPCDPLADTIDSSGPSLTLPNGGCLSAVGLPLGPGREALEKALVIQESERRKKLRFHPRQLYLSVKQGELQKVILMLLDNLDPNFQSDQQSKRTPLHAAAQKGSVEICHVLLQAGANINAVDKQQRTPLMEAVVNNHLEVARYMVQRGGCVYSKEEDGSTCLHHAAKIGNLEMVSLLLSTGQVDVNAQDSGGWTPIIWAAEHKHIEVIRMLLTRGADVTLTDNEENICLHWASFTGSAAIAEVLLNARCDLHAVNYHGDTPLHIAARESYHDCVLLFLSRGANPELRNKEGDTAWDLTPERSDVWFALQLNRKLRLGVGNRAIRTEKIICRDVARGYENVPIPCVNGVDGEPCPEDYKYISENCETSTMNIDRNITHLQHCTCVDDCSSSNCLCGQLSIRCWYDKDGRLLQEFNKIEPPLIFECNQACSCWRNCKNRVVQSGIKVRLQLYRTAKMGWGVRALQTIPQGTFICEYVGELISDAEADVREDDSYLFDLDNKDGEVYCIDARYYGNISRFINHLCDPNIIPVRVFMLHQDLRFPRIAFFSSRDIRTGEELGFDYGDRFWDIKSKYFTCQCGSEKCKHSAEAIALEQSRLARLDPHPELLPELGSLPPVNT
Format: biochemical
Excerpt: The G9a AlphaLISA assay was used to detect the methyl modifications of a biotinylated histone H3 peptide by the compounds. These modifications are done by the histone methyl transferase activity of the G9a enzyme. The assay consists of reading a chemiluminescent signal at 615 nm; this signal is generated by a laser excitation at 680 nm that transfers a reactive singlet oxygen between the donor beads and acceptor beads. Donor beads are streptavidin conjugated and bind to the biotin on the peptide. Acceptor beads are conjugated with an antibody that recognizes the specific G9a methyl mark on the peptide. If there is a methyl mark on the peptide, the acceptor beads will bind to the peptide. Upon binding, the acceptor beads will be in close proximity (<200 nm) of the donor beads and when the donor beads are excited, the transfer of the oxygen can occur and a strong signal will be generated. If there is no methyl mark, the interaction between beads will not occur and signal will be at background levels.
For the assay, the following buffer was used to set up reactions: 50 mM Tris-HCl pH9, 50 mM NaCl, 0.01% Tween-20 and 1 mM DTT (added fresh prior to starting the reactions). The assay is set up by adding a final concentration of 0.15 nM G9a, 10 uM S-adenosyl-methionine and, 100 nM biotinylated histone 3 peptide (1-21). The reaction is incubated at room temperature for 1 h, and subsequently quenched by the addition of the acceptor beads (anti-H3k9me2 AlphaLISA acceptor beads, PerkinElmer #AL117) at a final concentration of 20 ug/mL. The acceptor beads are incubated for 1 h. After 1 h, the donor beads are added at a final concentration of 20 ug/mL (Alpha Streptavidin donor beads, PerkinElmer #6760002). Donor beads are incubated for 0.5 h. Both donor and acceptor beads are resuspended in AlphaLISA 5× Epigenetics Buffer 1 Kit (PerkinElmer #AL008) prior to addition to the reaction. All manipulations and incubations with the donor and acceptor beads are done in subdued light. Signal is detected in an EnVision plate reader in Alpha mode (See ACS Med Chem Lett. 2014 Jan. 2; 5(2):205-9)
Percent inhibition was calculated for each compound dilution and the concentration that produced 50% inhibition was calculated. This value is presented as the IC50.

Q: With CCN(C)CCCOc1cc2[nH]c3ccncc3c2cc1OC [Compound 45, ethyl[3-({8-methoxy-5H-pyrido[4,3-b]indol-7-yl}oxy)propyl]methylamine hydrochloride] as the molecule, how does the IC50 read?
A: The IC50 was 56 nM.

Q: With CCN(C)CCCOc1cc2[nH]c3ccnc(C4CC4)c3c2cc1OC [Compound 46, [3-({1-cyclopropyl-8-methoxy-5H-pyrido[4,3-b]indol-7-yl}oxy)propyl](ethyl)methylamine hydrochloride] as the molecule, how does the IC50 read?
A: The IC50 was 24 nM.

Q: COc1cc2c(cc1OCCCN(C)C)[nH]c1ccnc(C3CC3)c12 [Compound 47, [3-({1-cyclopropyl-8-methoxy-5H-pyrido[4,3-b]indol-7-yl}oxy)propyl]dimethylamine hydrochloride] was tested. Which IC50 did it give?
A: The IC50 was 9.4 nM.

Q: For COc1cc2c(cc1OCCCN(C)C)[nH]c1ccnc(C#CC(C)(C)O)c12 [Compound 48, 4-{7-[3-(dimethylamino)propoxy]-8-methoxy-5H-pyrido[4,3-b]indol-1-yl}-2-methylbut-3-yn-2-ol hydrochloride], which IC50 is on record?
A: Its IC50 is 1300 nM.

Q: With COc1cc2c(cc1OCCCN(C)C)[nH]c1ccnc(CCC(C)(C)O)c12 [Compound 49, 4-{7-[3-(dimethylamino)propoxy]-8-methoxy-5H-pyrido[4,3-b]indol-1-yl}-2-methylbutan-2-ol hydrochloride] as the molecule, how does the IC50 read?
A: Its IC50 is 45 nM.

Q: Which IC50 does the source give for COc1cc2c(cc1OCCCN(C)C)[nH]c1ccnc(C#CC(C)O)c12 (centres unmarked) [Compound 50, 4-{7-[3-(dimethylamino)propoxy]-8-methoxy-5H-pyrido[4,3-b]indol-1-yl}but-3-yn-2-ol hydrochloride] here?
A: Its IC50 is 690 nM.

Q: COc1cc2c(cc1OCCCN(C)C)[nH]c1ccnc(C#CC3CC3)c12 [Compound 51, (3-{[1-(2-cyclopropylethynyl)-8-methoxy-5H-pyrido[4,3-b]indol-7-yl]oxy}propyl)dimethylamine hydrochloride] was tested. Which IC50 did it give?
A: The IC50 was 470 nM.

Q: Which IC50 does the source give for COc1cc2c(cc1OCCCN(C)C)[nH]c1ccnc(CCC3CC3)c12 [Compound 52, 3-((1-(2-cyclopropylethyl)-8-methoxy-5H-pyrido[4,3-b]indol-7-yl)oxy)-N,N-dimethylpropan-1-amine hydrochloride] here?
A: Its IC50 is 100 nM.

Q: Which IC50 does the source give for COc1cc2c(cc1OCCOCCN(C)C)[nH]c1ccnc(C3CC3)c12 [Compound 53, {2-[2-({1-cyclopropyl-8-methoxy-5H-pyrido[4,3-b]indol-7-yl}oxy)ethoxy]ethyl}dimethylamine hydrochloride] here?
A: The IC50 was 62 nM.

Q: For CCCc1nccc2[nH]c3cc(OCCCN(C)C)c(OC)cc3c12 [Compound 55, [3-({8-methoxy-1-propyl-5H-pyrido[4,3-b]indol-7-yl}oxy)propyl]dimethylamine hydrochloride], which IC50 is on record?
A: Its IC50 is 18 nM.

Q: For COc1cc2c(cc1OCCCN(C)C)[nH]c1ccnc(C3CCCC3)c12 [Compound 56, [3-({1-cyclopentyl-8-methoxy-5H-pyrido[4,3-b]indol-7-yl}oxy)propyl]dimethylamine hydrochloride], which IC50 is on record?
A: The IC50 was 15 nM.

Q: With CCOCCc1nccc2[nH]c3cc(OCCCN(C)C)c(OC)cc3c12 [Compound 57, (3-{[1-(2-ethoxyethyl)-8-methoxy-5H-pyrido[4,3-b]indol-7-yl]oxy}propyl)dimethylamine hydrochloride] as the molecule, how does the IC50 read?
A: The IC50 was 61 nM.

Q: For COCCCc1nccc2[nH]c3cc(OCCCN(C)C)c(OC)cc3c12 [Compound 58, (3-{[8-methoxy-1-(3-methoxypropyl)-5H-pyrido[4,3-b]indol-7-yl]oxy}propyl)dimethylamine hydrochloride], which IC50 is on record?
A: The IC50 was 86 nM.

Q: How did the IC50 turn out when C#Cc1nccc2[nH]c3cc(OCCCN(C)C)c(OC)cc3c12 [Compound 59, [3-({1-ethynyl-8-methoxy-5H-pyrido[4,3-b]indol-7-yl}oxy)propyl]dimethylamine hydrochloride] was run?
A: Its IC50 is 160 nM.

Q: With COc1cc2c(cc1OCCCN1CCCC1C)[nH]c1ccnc(C3CC3)c12 (centres unmarked) [Compound 60, 1-[3-({1-cyclopropyl-8-methoxy-5H-pyrido[4,3-b]indol-7-yl}oxy)propyl]-2-methylpyrrolidine hydrochloride] as the molecule, how does the IC50 read?
A: The IC50 was 51 nM.

Q: COc1cc2c(cc1OCCCN(C(C)C)C(C)C)[nH]c1ccnc(C3CC3)c12 [Compound 61, [3-({1-cyclopropyl-8-methoxy-5H-pyrido[4,3-b]indol-7-yl}oxy)propyl]bis(propan-2-yl)amine hydrochloride] was tested. Which IC50 did it give?
A: The IC50 was 480 nM.

Q: COc1cc2c(cc1OCCCN1CC[C@@H](F)C1)[nH]c1ccnc(C3CC3)c12 [Compound 62, (3R)-1-[3-({1-cyclopropyl-8-methoxy-5H-pyrido[4,3-b]indol-7-yl}oxy)propyl]-3-fluoropyrrolidine hydrochloride] was tested. Which IC50 did it give?
A: The IC50 was 53 nM.

Q: With COc1cc2c(cc1OCCCN1CC[C@H](F)C1)[nH]c1ccnc(C3CC3)c12 [Compound 63, (3S)-1-[3-({1-cyclopropyl-8-methoxy-5H-pyrido[4,3-b]indol-7-yl}oxy)propyl]-3-fluoropyrrolidine hydrochloride] as the molecule, how does the IC50 read?
A: Its IC50 is 130 nM.

Q: How did the IC50 turn out when COc1cc2c(cc1OCCCN1CCCC1)[nH]c1ccnc(C3=CCOCC3)c12 [Compound 64, 1-(3-{[1-(3,6-dihydro-2H-pyran-4-yl)-8-methoxy-5H-pyrido[4,3-b]indol-7-yl]oxy}propyl)pyrrolidine hydrochloride] was run?
A: The IC50 was 12 nM.

Q: Which IC50 does the source give for COc1cc2c(cc1OCCCN1CCCC1)[nH]c1ccnc(C3CCOCC3)c12 [Compound 65, 1-(3-{[8-methoxy-1-(oxan-4-yl)-5H-pyrido[4,3-b]indol-7-yl]oxy}propyl)pyrrolidine hydrochloride] here?
A: Its IC50 is 8.2 nM.

Q: With COc1cc2c(cc1OCCCN(C)C)[nH]c1ccnc(C(C)C)c12 [Compound 67, (3-{[8-methoxy-1-(propan-2-yl)-5H-pyrido[4,3-b]indol-7-yl]oxy}propyl)dimethylamine hydrochloride] as the molecule, how does the IC50 read?
A: Its IC50 is 9.5 nM.

Q: How did the IC50 turn out when COc1cc2c(cc1OCCCN(C)C)[nH]c1ccnc(C3CCOCC3)c12 [Compound 68, (3-{[8-methoxy-1-(oxan-4-yl)-5H-pyrido[4,3-b]indol-7-yl]oxy}propyl)dimethylamine hydrochloride] was run?
A: The IC50 was 26 nM.

Q: COc1cc2c(cc1OCCCN(C)C)[nH]c1ccnc(C3CCC3)c12 [Compound 69, [3-({1-cyclobutyl-8-methoxy-5H-pyrido[4,3-b]indol-7-yl}oxy)propyl]dimethylamine hydrochloride] was tested. Which IC50 did it give?
A: The IC50 was 30 nM.

Q: Which IC50 does the source give for COc1cc2c(cc1OCCN(C)C)[nH]c1ccncc12 [Compound 70, [2-({8-methoxy-5H-pyrido[4,3-b]indol-7-yl}oxy)ethyl]dimethylamine hydrochloride] here?
A: Its IC50 is 400 nM.

Q: With COc1cc2c(cc1OCCN1CCCC1)[nH]c1ccncc12 [Compound 71, 1-[2-({8-methoxy-5H-pyrido[4,3-b]indol-7-yl}oxy)ethyl]pyrrolidine hydrochloride] as the molecule, how does the IC50 read?
A: The IC50 was 52 nM.

Q: COc1cc2c(cc1OCCCN1CCC1)[nH]c1ccncc12 [Compound 72, 1-[3-({8-methoxy-5H-pyrido[4,3-b]indol-7-yl}oxy)propyl]azetidine hydrochloride] was tested. Which IC50 did it give?
A: The IC50 was 9.1 nM.
